Source: patent US20040176349A1, “Antibacterial composition” (priority 2001, published 2004)
Like-named read-outs stand apart in the source and are kept apart here.

How the values were obtained:
[1] = tested on: E. faecalis ATCC 10541; assay: Checkerboard microdilution MIC with PFOB, Table 2; format: cell-based; settings: E. faecalis ATCC 10541; for MIC of partner antibiotic in the presence of PFOB at 0.5 mg/L: PFOB 0.5 mg/L; for MIC of partner antibiotic in the presence of PFOB at 1 mg/L: PFOB 1 mg/L; for MIC of partner antibiotic in the presence of PFOB at 2 mg/L: PFOB 2 mg/L; for MIC of partner antibiotic in the presence of PFOB at 4 mg/L: PFOB 4 mg/L; for MIC of partner antibiotic in the presence of PFOB at 8 mg/L: PFOB 8 mg/L; for MIC of partner antibiotic in the presence of PFOB at 16 mg/L: PFOB 16 mg/L; for MIC of partner antibiotic in the presence of PFOB at 32 mg/L: PFOB 32 mg/L; for MIC: Enterococcus faecalis, ATCC10541; for Synergy FIC: FIC index of PFOB + labelled partner, <0.5 = synergy
Source text: The aim of the study was to detect any synergy between PFOB and the other antibiotics. For the purposes of the study, synergy was defined in accordance with the FIC (fractional inhibitory concentration) index, as disclosed by Lorian (1991, In “Antibiotics in Laboratory Medicine” 3rd edition, Eds. Williams & Wilkins; esp. p 434-443).

[2] = tested on: E.faecalis 78097 (van B); assay: Checkerboard microdilution MIC with PFOB, Table 2; format: cell-based; settings: E.faecalis 78097 (van B); for MIC of partner antibiotic in the presence of PFOB at 0.5 mg/L: PFOB 0.5 mg/L; for MIC of partner antibiotic in the presence of PFOB at 1 mg/L: PFOB 1 mg/L; for MIC of partner antibiotic in the presence of PFOB at 2 mg/L: PFOB 2 mg/L; for MIC of partner antibiotic in the presence of PFOB at 4 mg/L: PFOB 4 mg/L; for MIC of partner antibiotic in the presence of PFOB at 8 mg/L: PFOB 8 mg/L; for MIC of partner antibiotic in the presence of PFOB at 16 mg/L: PFOB 16 mg/L; for MIC of partner antibiotic in the presence of PFOB at 32 mg/L: PFOB 32 mg/L; for MIC: Enterococcus faecalis, partner antibiotic alone, read-out: MIC (alone) of Partner
Source text: (§1) The aim of the study was to detect any synergy between PFOB and the other antibiotics. For the purposes of the study, synergy was defined in accordance with the FIC (fractional inhibitory concentration) index, as disclosed by Lorian (1991, In “Antibiotics in Laboratory Medicine” 3rd edition, Eds. Williams & Wilkins; esp. p 434-443). In essence, if the combination of test compounds gives at least a 4-fold reduction in the FIC value for each compound, then a synergy may be considered to exist (i.e. FIC of the combination <0.5=synergy; FIC 0.5-2.0=“indifference”; and FIC >2=antagonism).
(§2) In Table 2, results in the checkerboard indicating synergy are hatched, and specific optimum synergistic combinations are boxed.

[3] = tested on: E. faecalis ATCC 29212; assay: Checkerboard microdilution MIC with PFOB, Table 2; format: cell-based; settings: E. faecalis ATCC 29212; for Synergy FIC: FIC index of PFOB + labelled partner, <0.5 = synergy; for MIC of partner antibiotic in the presence of PFOB at 0.5 mg/L: PFOB 0.5 mg/L; for MIC of partner antibiotic in the presence of PFOB at 1 mg/L: PFOB 1 mg/L; for MIC of partner antibiotic in the presence of PFOB at 2 mg/L: PFOB 2 mg/L; for MIC of partner antibiotic in the presence of PFOB at 4 mg/L: PFOB 4 mg/L; for MIC of partner antibiotic in the presence of PFOB at 8 mg/L: PFOB 8 mg/L; for MIC of partner antibiotic in the presence of PFOB at 16 mg/L: PFOB 16 mg/L; for MIC of partner antibiotic in the presence of PFOB at 32 mg/L: PFOB 32 mg/L; for MIC of PFOB & Partner: Partner concentration: optimum synergistic combination with PFOB, second figure (partner); for MIC: Enterococcus faecalis, ATCC29212, partner antibiotic alone, read-out: MIC (alone) of Partner
Source text: as §1, §2

[4] = tested on: E. faecalis 5659 (vanA); assay: Checkerboard microdilution MIC with PFOB, Table 2; format: cell-based; settings: E. faecalis 5659 (vanA); for MIC of partner antibiotic in the presence of PFOB at 0.5 mg/L: PFOB 0.5 mg/L; for MIC of partner antibiotic in the presence of PFOB at 1 mg/L: PFOB 1 mg/L; for MIC of partner antibiotic in the presence of PFOB at 2 mg/L: PFOB 2 mg/L; for MIC of partner antibiotic in the presence of PFOB at 4 mg/L: PFOB 4 mg/L; for MIC of partner antibiotic in the presence of PFOB at 8 mg/L: PFOB 8 mg/L; for MIC of partner antibiotic in the presence of PFOB at 32 mg/L: PFOB 32 mg/L; for MIC: Enterococcus faecalis, partner antibiotic alone, read-out: MIC (alone) of Partner; for MIC of partner antibiotic in the presence of PFOB at 16 mg/L: PFOB 16 mg/L
Source text: as §1, §2

[5] = tested on: enterococci; assay: Checkerboard study, synergy summary of Example 2; format: cell-based, Enterococcus; settings: in words
Source text: as §1

[6] = partner antibiotic alone, read-out: MIC (alone) of Partner

Row | MIC of partner antibiotic in the presence of PFOB at 0.5 mg/L [1] | MIC of partner antibiotic in the presence of PFOB at 1 mg/L [1] | MIC of partner antibiotic in the presence of PFOB at 2 mg/L [1] | MIC of partner antibiotic in the presence of PFOB at 16 mg/L [1] | MIC of partner antibiotic in the presence of PFOB at 32 mg/L [1] | MIC [1, 6] | MIC of partner antibiotic in the presence of PFOB at 0.5 mg/L [2] | MIC of partner antibiotic in the presence of PFOB at 1 mg/L [2] | MIC of partner antibiotic in the presence of PFOB at 2 mg/L [2] | MIC of partner antibiotic in the presence of PFOB at 4 mg/L [2] | MIC of partner antibiotic in the presence of PFOB at 8 mg/L [2] | MIC of partner antibiotic in the presence of PFOB at 16 mg/L [2] | MIC of partner antibiotic in the presence of PFOB at 32 mg/L [2] | MIC [2] | MIC of partner antibiotic in the presence of PFOB at 0.5 mg/L [3] | MIC of partner antibiotic in the presence of PFOB at 1 mg/L [3] | MIC of partner antibiotic in the presence of PFOB at 2 mg/L [3] | MIC of partner antibiotic in the presence of PFOB at 4 mg/L [3] | MIC of partner antibiotic in the presence of PFOB at 8 mg/L [3] | MIC of partner antibiotic in the presence of PFOB at 16 mg/L [3] | Structure (SMILES) | other results
1 | 1 µg/mL | 1 µg/mL | 1 µg/mL | 0.125 µg/mL | <0.03 µg/mL | 1 µg/mL | 1 µg/mL | 1 µg/mL | 1 µg/mL | 1 µg/mL | 1 µg/mL | 1 µg/mL | 1 µg/mL | 0.5 µg/mL | 0.5 µg/mL | 0.5 µg/mL | 0.5 µg/mL | 0.25 µg/mL | 0.125 µg/mL | 0.125 µg/mL | C[C@@H](O)[C@H]1C(=O)N2C(C(=O)O)=C(SCCN=CN)C[C@H]12 [Imipenem, imipenem] | MIC of partner antibiotic in the presence of PFOB at 4 mg/L [1]: 1 µg/mL; MIC of partner antibiotic in the presence of PFOB at 8 mg/L [1]: 0.25 µg/mL; Synergy FIC [3]: 0.375; MIC of partner antibiotic in the presence of PFOB at 32 mg/L [3]: <0.03 µg/mL; MIC of PFOB & Partner: Partner concentration [3]: 0.12 µg/mL; MIC [3]: 0.5 µg/mL; MIC of partner antibiotic in the presence of PFOB at 0.5 mg/L [4]: 1 µg/mL; MIC of partner antibiotic in the presence of PFOB at 1 mg/L [4]: 1 µg/mL; MIC of partner antibiotic in the presence of PFOB at 2 mg/L [4]: 1 µg/mL; MIC of partner antibiotic in the presence of PFOB at 4 mg/L [4]: 1 µg/mL; MIC of partner antibiotic in the presence of PFOB at 8 mg/L [4]: 1 µg/mL; MIC of partner antibiotic in the presence of PFOB at 32 mg/L [4]: 0.25 µg/mL; MIC [4]: 0.25 µg/mL
2 | 0.25 µg/mL | 0.25 µg/mL | 0.25 µg/mL | 0.06 µg/mL | <0.03 µg/mL | 1 µg/mL | 0.5 µg/mL | 0.5 µg/mL | 0.5 µg/mL | 0.5 µg/mL | 0.5 µg/mL | 0.5 µg/mL | 0.5 µg/mL | 1 µg/mL | 1 µg/mL | 1 µg/mL | 1 µg/mL | 1 µg/mL | 1 µg/mL | 1 µg/mL | CC1(C)S[C@@H]2[C@H](NC(=O)[C@H](N)c3ccccc3)C(=O)N2[C@H]1C(=O)O [Ampicillin, ampicillin] | synergy with PFOB [5]: less marked, but still significant, synergy; Synergy FIC [1]: 0.253; MIC of partner antibiotic in the presence of PFOB at 32 mg/L [3]: <0.03 µg/mL; MIC [3]: 0.5 µg/mL; MIC of partner antibiotic in the presence of PFOB at 0.5 mg/L [4]: 2 µg/mL; MIC of partner antibiotic in the presence of PFOB at 1 mg/L [4]: 2 µg/mL; MIC of partner antibiotic in the presence of PFOB at 2 mg/L [4]: 2 µg/mL; MIC of partner antibiotic in the presence of PFOB at 4 mg/L [4]: 2 µg/mL; MIC of partner antibiotic in the presence of PFOB at 8 mg/L [4]: 1 µg/mL; MIC of partner antibiotic in the presence of PFOB at 16 mg/L [4]: 1 µg/mL; MIC of partner antibiotic in the presence of PFOB at 32 mg/L [4]: 0.25 µg/mL; MIC [4]: 1 µg/mL
3 | >64 µg/mL | >64 µg/mL | >64 µg/mL | <0.06 µg/mL | <0.06 µg/mL | > 64 µg/mL | 64 µg/mL | 8 µg/mL | 8 µg/mL | 8 µg/mL | 4 µg/mL | 1 µg/mL | 0.5 µg/mL | > 64 µg/mL | >64 µg/mL | >64 µg/mL | 32 µg/mL | 8 µg/mL | 4 µg/mL | 1 µg/mL | CO/N=C(\C(=O)N[C@@H]1C(=O)N2C(C(=O)O)=C(COC(N)=O)CS[C@H]12)c1ccco1 [Cefuroxime, cefuroxime] | Synergy FIC [1]: 0.067; MIC of partner antibiotic in the presence of PFOB at 4 mg/L [1]: 8 µg/mL; MIC of partner antibiotic in the presence of PFOB at 8 mg/L [1]: 0.5 µg/mL; MIC ([1]; optimum synergistic combination of PFOB with the labelled partner, first figure (PFOB), read-out: MIC of PFOB & Partner: PFOB concentration): 8 µg/mL; MIC ([1]; optimum synergistic combination with PFOB, second figure (partner), read-out: MIC of PFOB & Partner: Partner concentration): 0.5 µg/mL; Synergy FIC ([2]; FIC index of PFOB + labelled partner, <0.5 = synergy): 0.07; MIC of PFOB & Partner: Partner concentration ([2]; optimum synergistic combination with PFOB, second figure (partner)): 8 µg/mL; Synergy FIC [3]: 0.156; MIC of partner antibiotic in the presence of PFOB at 32 mg/L [3]: <0.06 µg/mL; MIC of PFOB & Partner: Partner concentration [3]: 1 µg/mL; MIC [3]: 32 µg/mL; MIC of partner antibiotic in the presence of PFOB at 0.5 mg/L [4]: >64 µg/mL; MIC of partner antibiotic in the presence of PFOB at 1 mg/L [4]: >64 µg/mL; MIC of partner antibiotic in the presence of PFOB at 2 mg/L [4]: >64 µg/mL; MIC of partner antibiotic in the presence of PFOB at 4 mg/L [4]: >64 µg/mL; MIC of partner antibiotic in the presence of PFOB at 8 mg/L [4]: >64 µg/mL; MIC of partner antibiotic in the presence of PFOB at 16 mg/L [4]: >64 µg/mL; MIC of partner antibiotic in the presence of PFOB at 32 mg/L [4]: 0.5 µg/mL; MIC [4]: > 64 µg/mL
